Values quoted from earlier work as cited in patent US20070059354A1 (priority 2005, published 2007).

**Q.** With `NC(=O)N1c2ccccc2CC(=O)c2ccccc21` [Oxcarbazepine] as the compound, how does the solubility in water read?
**A.** practically insoluble in water
